According to patent US5807691A, “Polypeptides having serotonin receptor activity (5HT5A), nucleic acids coding for these polypeptides and uses thereof” (Institut National De La Sante et Da La Recherche Medicale, priority 1992, dated 1998):
Read-outs that look alike come from different tables or passages of the source.

Experiments:
[1] = molecular target: 5HT5a receptor
[2] = molecular target: 5HT1D; details: cited from earlier work
[3] = molecular target: 5HT1D; details: cited from earlier work; remark: listed apart in the source
[4] = system: 5HT5a receptor; test: Saturation binding of radiolabelled serotonin ligands to membranes of Cos-7 cells expressing the 5HT5a receptor; design: species or system rat; details: 10 minutes at 37° C., 50 mM Tris-HCl pH 7.4
Description: The specific binding is shown.
(§1) Radioactivity was measured with a γ counter.

[5] = system: 5HT5a receptor; test: [^125 I]-LSD binding to membranes of NIH-3T3 clones NS1 and NS4 expressing the 5HT5a receptor; design: species or system rat
Description: as §1
For this purpose, the recombinant expression vector described in 3. above was used. […] The transformant clones were selected in the presence of 0.5 mg of G418. The clones isolated were then amplified, and the total RNAs of these clones were prepared and analysed by Northern blotting for the expression of 5HT5a mRNA.
The membranes of the cells of these clones were then prepared and tested under the conditions described above for their capacity to bind some labelled serotonin ligands, and to determine the affinity of the receptors for the said ligands.
Different displacement experiments were then carried out (Table 1).

[6] = system: 5HT5a receptor; remark: listed apart in the source

SMILES | pKi 5HT1D (Calf caudate) ([2]; Calf caudate) | pKi 5HT1D (rat cortex) [3] | further results
NCCc1ccc(O)c(O)c1 [Dopamine] |  |  | Ki [1]: 79.4 µM
CC(C)NCC(O)COc1cccc2[nH]ccc12 (racemic) [(±)Pindolol] | 5.2 | < 5 | 
COc1ccc2[nH]cc(C3=CCNCC3)c2c1 [RU24969] | 7.3 |  | 
O=C(CCCN1CCC2(CC1)C(=O)NCN2c1ccccc1)c1ccc(F)cc1 [[^3 H]-spiperone] |  |  | binding of radiolabelled ligand to membranes of transfected Cos-7 cells [4]: do not bind
NCCc1c[nH]c2ccc(O)cc12 [5-HT, 5-hydroxytryptamine] | 8.4 | 8.7 | 
CCCN(CCC)C1CCc2cccc(O)c2C1 (stereo not drawn) [[^3 H]-8-OH-DPAT] |  |  | binding of radiolabelled ligand to membranes of transfected Cos-7 cells [4]: do not bind
CC(C)(C)NCC(O)COc1cccc2[nH]c(C#N)c([125I])c12 (stereo not drawn) [[^125 I]-cyanopindolol] |  |  | binding of radiolabelled ligand to membranes of transfected Cos-7 cells [4]: do not bind
CCN(CC)C(=O)[C@@H]1C=C2c3cccc4[nH]c([125I])c(c34)C[C@H]2N(C)C1 [[^125 I]-LSD] |  |  | binding of radiolabelled ligand to membranes of transfected Cos-7 cells [4]: possesses a saturable binding site; Kd ([4]; Cos-7 membranes, non-specific binding with 10 μM 5HT, FIG. 2): 0.00034 µM; binding sites for [^125 I]-LSD on membranes of clones NS1 and NS4 [5]: high-affinity binding sites
NC[C@H](O)c1ccc(O)c(O)c1 [(-)Norepinephrine] |  |  | Ki [1]: 1580 µM
CN1C[C@H](C(=O)N[C@]2(C)O[C@@]3(O)[C@@H]4CCCN4C(=O)[C@H](Cc4ccccc4)N3C2=O)C=C2c3cccc4[nH]cc(c34)C[C@H]21 [Ergotamine] |  |  | pKi 5HT1D (Calf caudate) [2]: 7.8; pKi 5HT5 (Cos-7) [6]: 8.4
CCCN(CCC)C1CCc2cccc(O)c2C1 (stereo not drawn) [8-OH-DPAT] | 5.9 | 6.6 | 
CNS(=O)(=O)Cc1ccc2[nH]cc(CCN(C)C)c2c1 [Sumatriptan] | 7.5 |  | 
O=C(c1ccc(F)cc1)C1CCN(CCn2c(=O)[nH]c3ccccc3c2=O)CC1 [Ketanserin] | 5.7 | < 5 | Ki [1]: 15.8 µM
FC(F)(F)c1cccc(N2CCNCC2)c1 [TFMPP] | 6.2 | 6.6 | 
COC(=O)[C@@H]1[C@H]2C[C@H]3c4[nH]c5ccccc5c4CCN3C[C@@H]2CC[C@@H]1O [Yohimbine] |  |  | pKi 5HT1D (Calf caudate) [2]: 7.1
NCCc1c[nH]c2ccc(C(N)=O)cc12 [5-CT] | 8.6 | 8.6 | 
CN(C)CCc1c[nH]c2ccc(O)cc12 [Bufotenine] | 8.1 |  | 
